Activity calls are given as the source filed them. No cut-off for these calls is given here.
Key:
[1] = Inhibition of aspartic protease
[2] = Inhibition of serine protease
[3] = Inhibition of cysteine protease

Row | Structure (SMILES) | inhibition [1] | IC50 [2] [µM] | IC50 [3]
1 | Cc1cccc2c1C(=O)N1C[C@H](OCc3ccccc3)C[C@H]1c1cnnn1-2 | inactive | 536 | Not Active
2 | Cc1cc(Br)cc2c1C(=O)N1CCC[C@H]1c1cnnn1-2 | inactive | 674 | Not Active
3 | O=C1c2cc(Br)ccc2-n2nncc2[C@@H]2CCCN12 | inactive | 290 | Not Active
4 | O=C1c2c(cccc2[N+](=O)[O-])-n2nncc2[C@@H]2CCCN12 | inactive | 108 | Not Active
5 | O=C1c2cc(I)cc(I)c2-n2nncc2[C@@H]2C[C@@H](OCc3ccccc3)CN12 | inactive | 196 | Not Active
6 | O=C1c2cc(Br)ccc2-n2nncc2[C@@H]2C[C@@H](OCc3ccccc3)CN12 | inactive | 206 | Not Active
